Reference: the supplement of paper PMC6045584
± gives the standard deviation of the averaged measurements.

Key:
[1] = compound: COc1cc2c(cc1O)CC[C@@H]1[C@@H]2CC[C@]2(C)[C@@H](O)CC[C@@H]12 [2-METHOXYESTRADIOL]; assay: surviving fraction relative to DMSO-only wells; higher = less growth inhibition; settings: exposure time: 5 days
How it was run: (§1)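 Luminescence normalised to the median of DMSO-only wells defines surviving fraction, with viability read by CellTiter-Glo. Signal was recorded after 10 minutes at room temperature, once log-phase tumour cell lines seeded at 250–500 cells per well in 384-well plates had spent 24 hours settling and then five days under continuous exposure to inhibitors at 0.5, 1, 5, 10, 50, 100, 500 and 1000 nM.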

[2] = compound: C=CCNC1=C2C[C@@H](C)C[C@H](OC)[C@H](O)[C@@H](C)/C=C(\C)[C@H](OC(N)=O)[C@@H](OC)/C=C\C=C(/C)C(=O)NC(=CC1=O)C2=O [17-AAG]; assay: as above; settings: exposure time: 5 days
How it was run: as §1

Test System | surviving fraction ([1]; 0.5 nM) | surviving fraction ([1]; 1 nM) | surviving fraction ([1]; 5 nM) | surviving fraction ([1]; 10 nM) | surviving fraction ([1]; 50 nM) | surviving fraction ([1]; 100 nM) | surviving fraction ([1]; 500 nM) | surviving fraction ([1]; 1000 nM) | surviving fraction ([2]; 0.5 nM) | surviving fraction ([2]; 1 nM) | surviving fraction ([2]; 5 nM) | surviving fraction ([2]; 10 nM) | surviving fraction ([2]; 50 nM) | surviving fraction ([2]; 100 nM) | surviving fraction ([2]; 500 nM) | surviving fraction ([2]; 1000 nM)
SG27 HEADNECK | 1.14 ± 0.19 | 1.2 ± 0.083 | 1.04 ± 0.12 | 1.05 ± 0.081 | 1.05 ± 0.085 | 1.16 ± 0.2 | 1.09 ± 0.062 | 1.03 ± 0.079 | 1.046 ± 0.0051 | 1.07 ± 0.073 | 0.913 ± 0.039 | 0.93 ± 0.026 | 1.31 ± 0.16 | 1.1 ± 0.24 | 0.274 ± 0.044 | 0.111 ± 0.014
T47D BREAST | 1 ± 0.053 | 1.02 ± 0.017 | 0.9847 ± 0.0046 | 1.01 ± 0.038 | 1.06 ± 0.062 | 1.087 ± 0.0062 | 0.783 ± 0.033 | 0.543 ± 0.037 | 0.943 ± 0.058 | 0.914 ± 0.035 | 0.944 ± 0.011 | 0.958 ± 0.046 | 0.928 ± 0.023 | 0.747 ± 0.032 | 0.4288 ± 0.004 | 0.425 ± 0.0062
MFM223 BREAST | 1.11 ± 0.1 | 1.11 ± 0.062 | 1.1 ± 0.093 | 1.17 ± 0.35 | 1.06 ± 0.034 | 0.973 ± 0.026 | 0.384 ± 0.057 | 0.16 ± 0.032 | 0.757 ± 0.067 | 0.749 ± 0.036 | 0.503 ± 0.049 | 0.33 ± 0.022 | 0.119 ± 0.0098 | 0.0942 ± 0.006 | 0.08 ± 0.0044 | 0.095 ± 0.006
SCC47 HEADNECK | 0.816 ± 0.11 | 0.912 ± 0.15 | 0.977 ± 0.055 | 1.1 ± 0.16 | 1.09 ± 0.11 | 1.12 ± 0.15 | 0.838 ± 0.046 | 0.872 ± 0.12 | 0.908 ± 0.024 | 0.925 ± 0.028 | 0.973 ± 0.014 | 0.939 ± 0.028 | 0.964 ± 0.053 | 0.255 ± 0.032 | 0.095 ± 0.002 | 0.067 ± 0.0044
HELA CERVIX | 0.982 ± 0.043 | 1 ± 0.031 | 0.985 ± 0.013 | 0.938 ± 0.04 | 1.06 ± 0.064 | 1.11 ± 0.077 | 0.593 ± 0.045 | 0.0965 ± 0.0045 | 0.944 ± 0.039 | 0.921 ± 0.037 | 0.924 ± 0.045 | 0.906 ± 0.043 | 0.68 ± 0.092 | 0.482 ± 0.038 | 0.219 ± 0.015 | 0.0948 ± 0.0088
MDAMB231 BREAST | 0.964 ± 0.0098 | 0.949 ± 0.011 | 0.9675 ± 0.0069 | 0.963 ± 0.018 | 0.983 ± 0.027 | 0.989 ± 0.027 | 0.545 ± 0.025 | 0.258 ± 0.012 | 0.95 ± 0.019 | 0.943 ± 0.03 | 0.994 ± 0.033 | 1.01 ± 0.022 | 0.534 ± 0.019 | 0.263 ± 0.0075 | 0.103 ± 0.0031 | 0.0973 ± 0.0038
PCI30 HEADNECK | 0.783 ± 0.016 | 0.857 ± 0.019 | 1.03 ± 0.039 | 0.985 ± 0.057 | 1.01 ± 0.078 | 0.982 ± 0.051 | 0.421 ± 0.048 | 0.216 ± 0.046 | 0.915 ± 0.067 | 0.972 ± 0.059 | 1.01 ± 0.12 | 1.09 ± 0.029 | 0.302 ± 0.031 | 0.134 ± 0.019 | 0.0433 ± 0.0093 | 0.0393 ± 0.0015
RDES SOFT TISSUE | 1.26 ± 0.16 | 1.26 ± 0.086 | 1.15 ± 0.046 | 1.29 ± 0.11 | 1.29 ± 0.15 | 1.17 ± 0.14 | 1.13 ± 0.12 | 0.178 ± 0.034 | 0.776 ± 0.22 | 0.784 ± 0.055 | 0.674 ± 0.081 | 0.692 ± 0.18 | 0.745 ± 0.11 | 0.992 ± 0.26 | 0.335 ± 0.042 | 0.16 ± 0.0035
SCC003 HEADNECK | 0.936 ± 0.064 | 0.88 ± 0.13 | 1.03 ± 0.045 | 0.976 ± 0.074 | 1.04 ± 0.043 | 1.11 ± 0.017 | 0.867 ± 0.15 | 0.734 ± 0.087 | 0.839 ± 0.058 | 0.89 ± 0.024 | 0.882 ± 0.04 | 0.789 ± 0.14 | 1.01 ± 0.074 | 0.396 ± 0.012 | 0.195 ± 0.017 | 0.0693 ± 0.0095
A549 LUNG | 0.991 ± 0.016 | 0.9623 ± 0.0067 | 0.983 ± 0.018 | 0.945 ± 0.021 | 1.02 ± 0.043 | 1.05 ± 0.015 | 0.992 ± 0.025 | 0.544 ± 0.028 | 0.923 ± 0.039 | 0.909 ± 0.038 | 0.91 ± 0.007 | 0.813 ± 0.076 | 0.14 ± 0.014 | 0.06 ± 0.0044 | 0.0547 ± 0.0032 | 0.0493 ± 0.00058
